One data set deals with NF-kB. The data set can be described thus: NF-kB driven transcription in TNF-α stimulated HaCaT cells. The format is cell-based. Conditions: human keratinocytes (HaCaT), read-out: IC50 of inhibition of NF-kB-driven transcription. How it is done:
(§1) To evaluate the anti-inflammatory activity of the extract according to the present invention, the in vitro effect after exposure to pro-inflammatory stimuli on the expression levels of factors known to be involved in inflammatory processes was evaluated.
The nuclear transcription factor NF-kB is activated by pro-inflammatory stimuli and activates the transcription of genes that amplify the inflammatory process, such as MMP-9, cytokines and growth factors such as VEGF.

The next data set has as its system VEGF. The data set can be described thus: VEGF secretion in TNF-α stimulated HaCaT cells. Conditions: human keratinocytes (HaCaT), TNF-α 10 ng/ml. It counts as cell-based. How it is done: as §1
(§2) In particular, the following were chosen as inflammation markers: • IL-8, a cytokine secreted by keratinocytes and fibroblasts following inflammation and particularly involved in skin diseases such as psoriasis; • MMP-9, a metalloprotease which degrades the extracellular matrix and which is activated following chronic skin inflammations such as dermatitis and psoriasis; • VEGF, the release of which by keratinocytes leads to the formation of the classic psoriatic plaques in patients suffering from this pathology.

In data set [1] the test system is MMP-9. Nature of the data set: MMP-9 release in TNF-α stimulated HDF cells. The following applies: human fibroblasts (HDF). The format is cell-based.
Source text: (§3) FIG. 7: effect evaluated on TNF-α stimulated HDF cells (A) on transcription induced by NF-kB and on release of (B) IL8, (C) MMP-9 following exposure to the indicated doses of the composition according to the present invention and, for comparative purposes, (D) on NF-kB-induced transcription and (E) IL8, (F) MMP-9 release following exposure to pure CBD.
as §1, §2
(§4) FIG. 7 reports the results obtained in human fibroblasts.

Data set [2] has as its system IL-8. The data set can be described thus: IL-8 secretion in TNF-α stimulated HaCaT cells. The format is cell-based. Conditions: human keratinocytes (HaCaT), TNF-α 10 ng/ml. How it is done:
as §1, §2

The test system of data set [3] is IL-8. The data set can be described thus: IL-8 release in TNF-α stimulated HDF cells. It counts as cell-based. Conditions: human fibroblasts (HDF).
Source text: as §3, §1, §2, §4

For another data set, the system named is HDF cells. The data set can be described thus: MTT cytotoxicity assay on HDF cells. The format is cell-based, human. The following applies: 6 or 24 hours (FIG. 3). How it is done:
(§5) The cytotoxicity tests were performed using the MTT assay, capable of measuring the mitochondrial succinic dehydrogenase enzyme, whose activity indicates cell viability, on human keratinocytes or fibroblasts incubated with the Cannabis sativa extract according to example 2 and with pure CBD. The integrity of the morphology before and after 6 and 24 hour incubation was assessed by light microscopy.
(§6) HaCaT cells, spontaneously immortalized human keratinocyte line (Boukamp et al., 1988) and normal human dermal fibroblasts (HDF) were cultured in DMEM (Gibco, Life Technologies, Monza, Italy) supplemented with 10% heat inactivated fetal bovine serum (Euroclone SpA, Milan, Italy), L-glutamine (2 mM; Gibco, Life Technologies, Monza, Italy), penicillin (100 U/ml), and streptomycin ([…]; Gibco, Life Technologies, Monza, Italy), at 37° C. in a humidified atmosphere containing 5% CO2. Every 4 days, at 80-90% confluence, the cells were detached using 0.25% trypsin-EDTA (Gibco, Life Technologies, Monza, Italy), counted and placed in a new flask at a density of 1.5×10^6 cells per flask, to allow for growth. For the purpose of the present analyses, the cells were seeded in 24-well plates and incubated with the extract according to the present invention or pure CBD at increasing concentrations. […]
For orientation: Tetrazolium assays rely on reduction of a dye to a coloured formazan, in cell work by metabolically active cells.

Data set [4] deals with MMP-9. The data set can be described thus: MMP-9 secretion in TNF-α stimulated HaCaT cells. Conditions: human keratinocytes (HaCaT), TNF-α 10 ng/ml. The format is cell-based. How it is done:
as §1, §2

The subject of a further data set is HaCaT cells. Nature of the data set: MTT cytotoxicity assay on HaCaT cells. Conditions: 6 or 24 hours (FIG. 4). It counts as cell-based, human. How it is done: as §5, §6

Broadly, the IC50 is the midpoint of a concentration-inhibition curve. Regarding `C=C(C)[C@@H]1CCC(C)=C[C@H]1c1c(O)cc(CCCCC)cc1O` [CBD, cannabidiol], the IC50 in the data set with NF-kB was 2850 nM. For the same compound, the “effect on expression levels of VEGF” value in the data set with VEGF is on record as “modest”. The “effect on release of MMP-9” value with MMP-9 [1] is reported as “no effect”. In the data set on IL-8 [2], the “effect on expression levels of IL-8” value is reported as “no effect”. In the data set with IL-8 [3], the “effect on release of IL-8” value is given as “no effect”. Besides, the “concentrations showing cytotoxic effects” value with HDF cells is reported as “above 2.5 μM”; in the data set on HaCaT cells it was “above 5 μM”. In the data set on MMP-9 [4], the “effect on expression levels of MMP-9” value was “modest”.

These data come from US20230240973A1, “CANNABIS SATIVA EXTRACTS AND THEIR USES” (LINNEA SA, priority 2020, published 2023).
